Experimental data from ChEMBL document CHEMBL5518240 (J Med Chem, 2024).
The source made the active and inactive calls. No cut-off for these calls is given here.

Experiments:
[1] = system: LNCaP; experiment: Reduction in c-Myc gene expression in AR positive human LNCaP cells assessed as reduction in mRNA level at 1000 nM measured after 6 hrs by qRT-PCT analysis; type: functional, cell-based
[2] = system: LNCaP; experiment: Antiproliferative activity against AR positive human LNCaP cells assessed inhibition of cell growth measured after 4 days by CellTiter-Glo Luminescent cell viability assay; type: functional, cell-based; conditions: 96 h
[3] = system: VCaP; experiment: Reduction in AR gene expression in AR positive human VCaP cells assessed as reduction in mRNA level at 1000 nM measured after 6 hrs by qRT-PCT analysis; type: functional, cell-based
[4] = system: VCaP; experiment: Reduction in c-Myc gene expression in AR positive human VCaP cells assessed as reduction in mRNA level at 1000 nM measured after 6 hrs by qRT-PCT analysis; type: functional, cell-based
[5] = system: CWR22R; experiment: Reduction in c-Myc gene expression in AR positive human 22Rv1 cells assessed as reduction in mRNA level at 1000 nM measured after 6 hrs by qRT-PCT analysis; type: functional, cell-based
[6] = system: VCaP; experiment: Antitumor activity against human VCaP cells xenografted in CB17 SCID mouse model assessed as tumor growth inhibition at 30 mg/kg, po qd scheduled 5 days in a week measured on day 63; type: functional; conditions: 1512 h, time 63 day, read-out: TGI
[7] = system: VCaP; experiment: Antiproliferative activity against AR positive human VCaP cells assessed inhibition of cell growth measured after 4 days by CellTiter-Glo Luminescent cell viability assay; type: functional, cell-based; conditions: 96 h
[8] = system: CWR22R; experiment: Reduction in AR gene expression in AR positive human 22Rv1 cells assessed as reduction in mRNA level at 1000 nM measured after 6 hrs by qRT-PCT analysis; type: functional, cell-based
[9] = system: LNCaP; experiment: Reduction in KLK3 gene expression in AR positive human LNCaP cells assessed as reduction in mRNA level at 1000 nM measured after 6 hrs by qRT-PCT analysis; type: functional, cell-based
[10] = system: LNCaP; experiment: Reduction in AR gene expression in AR positive human LNCaP cells assessed as reduction in mRNA level at 1000 nM measured after 6 hrs by qRT-PCT analysis; type: functional, cell-based
[11] = system: VCaP; experiment: Reduction in KLK3 gene expression in AR positive human VCaP cells assessed as reduction in mRNA level at 1000 nM measured after 6 hrs by qRT-PCT analysis; type: functional, cell-based
[12] = system: CWR22R; experiment: Reduction in KLK3 gene expression in AR positive human 22Rv1 cells assessed as reduction in mRNA level at 1000 nM measured after 6 hrs by qRT-PCT analysis; type: functional, cell-based
[13] = system: CWR22R; experiment: Antiproliferative activity against AR positive human 22Rv1 cells assessed inhibition of cell growth measured after 4 days by CellTiter-Glo Luminescent cell viability assay; type: functional, cell-based; conditions: 22Rv1, 96 h
[14] = system: LNCaP; experiment: Reduction in c-Myc gene expression in AR positive human LNCaP cells assessed as reduction in mRNA level at 100 nM measured after 6 hrs by qRT-PCT analysis relative to control; type: functional, cell-based
[15] = system: VCaP; experiment: Reduction in c-Myc gene expression in AR positive human VCaP cells assessed as reduction in mRNA level at 100 nM measured after 6 hrs by qRT-PCT analysis relative to control; type: functional, cell-based
[16] = system: CWR22R; experiment: Reduction in AR gene expression in AR positive human 22Rv1 cells assessed as reduction in mRNA level at 100 nM measured after 6 hrs by qRT-PCT analysis relative to control; type: functional, cell-based
[17] = system: VCaP; experiment: Reduction in AR gene expression in AR positive human VCaP cells assessed as reduction in mRNA level at 100 nM measured after 6 hrs by qRT-PCT analysis relative to control; type: functional, cell-based
[18] = system: LNCaP; experiment: Reduction in AR gene expression in AR positive human LNCaP cells assessed as reduction in mRNA level at 100 nM measured after 6 hrs by qRT-PCT analysis relative to control; type: functional, cell-based
[19] = system: CWR22R; experiment: Reduction in c-Myc gene expression in AR positive human 22Rv1 cells assessed as reduction in mRNA level at 100 nM measured after 6 hrs by qRT-PCT analysis relative to control; type: functional, cell-based
[20] = molecular target: T1, Protein cereblon/Histone acetyltransferase p300 (Homo sapiens, UniProt Q09472+Q96SW2); experiment: PROTAC activity at p300/CRBN in human VCaP cells assessed as protein degradation incubated for 4 hrs by Western blot analysis; type: cell-based
[21] = molecular target: T2, Protein cereblon/CREB-binding protein (Homo sapiens, UniProt Q92793+Q96SW2); experiment: Potency index, ratio of […] DC50 to test compound DC50 for PROTAC activity at CBP/CRBN in human VCaP cells assessed as protein degradation incubated for 4 hrs by Western blot analysis; type: cell-based
[22] = molecular target: T2, Protein cereblon/CREB-binding protein; experiment: PROTAC activity at CBP/CRBN in human VCaP cells assessed as protein degradation incubated for 4 hrs by Western blot analysis; type: cell-based
[23] = molecular target: T2, Protein cereblon/CREB-binding protein; experiment: PROTAC activity at CBP/CRBN in human VCaP cells assessed as maximal protein degradation at 1 uM incubated for 4 hrs by Western blot analysis relative to control; type: cell-based
[24] = molecular target: T1, Protein cereblon/Histone acetyltransferase p300; experiment: Potency index, ratio of CPBD-409 DC50 to test compound DC50 for PROTAC activity at p300/CRBN in human VCaP cells assessed as protein degradation incubated for 4 hrs by Western blot analysis; type: cell-based
Target sequence in this assay (Q09472 2-2414 limits assumed): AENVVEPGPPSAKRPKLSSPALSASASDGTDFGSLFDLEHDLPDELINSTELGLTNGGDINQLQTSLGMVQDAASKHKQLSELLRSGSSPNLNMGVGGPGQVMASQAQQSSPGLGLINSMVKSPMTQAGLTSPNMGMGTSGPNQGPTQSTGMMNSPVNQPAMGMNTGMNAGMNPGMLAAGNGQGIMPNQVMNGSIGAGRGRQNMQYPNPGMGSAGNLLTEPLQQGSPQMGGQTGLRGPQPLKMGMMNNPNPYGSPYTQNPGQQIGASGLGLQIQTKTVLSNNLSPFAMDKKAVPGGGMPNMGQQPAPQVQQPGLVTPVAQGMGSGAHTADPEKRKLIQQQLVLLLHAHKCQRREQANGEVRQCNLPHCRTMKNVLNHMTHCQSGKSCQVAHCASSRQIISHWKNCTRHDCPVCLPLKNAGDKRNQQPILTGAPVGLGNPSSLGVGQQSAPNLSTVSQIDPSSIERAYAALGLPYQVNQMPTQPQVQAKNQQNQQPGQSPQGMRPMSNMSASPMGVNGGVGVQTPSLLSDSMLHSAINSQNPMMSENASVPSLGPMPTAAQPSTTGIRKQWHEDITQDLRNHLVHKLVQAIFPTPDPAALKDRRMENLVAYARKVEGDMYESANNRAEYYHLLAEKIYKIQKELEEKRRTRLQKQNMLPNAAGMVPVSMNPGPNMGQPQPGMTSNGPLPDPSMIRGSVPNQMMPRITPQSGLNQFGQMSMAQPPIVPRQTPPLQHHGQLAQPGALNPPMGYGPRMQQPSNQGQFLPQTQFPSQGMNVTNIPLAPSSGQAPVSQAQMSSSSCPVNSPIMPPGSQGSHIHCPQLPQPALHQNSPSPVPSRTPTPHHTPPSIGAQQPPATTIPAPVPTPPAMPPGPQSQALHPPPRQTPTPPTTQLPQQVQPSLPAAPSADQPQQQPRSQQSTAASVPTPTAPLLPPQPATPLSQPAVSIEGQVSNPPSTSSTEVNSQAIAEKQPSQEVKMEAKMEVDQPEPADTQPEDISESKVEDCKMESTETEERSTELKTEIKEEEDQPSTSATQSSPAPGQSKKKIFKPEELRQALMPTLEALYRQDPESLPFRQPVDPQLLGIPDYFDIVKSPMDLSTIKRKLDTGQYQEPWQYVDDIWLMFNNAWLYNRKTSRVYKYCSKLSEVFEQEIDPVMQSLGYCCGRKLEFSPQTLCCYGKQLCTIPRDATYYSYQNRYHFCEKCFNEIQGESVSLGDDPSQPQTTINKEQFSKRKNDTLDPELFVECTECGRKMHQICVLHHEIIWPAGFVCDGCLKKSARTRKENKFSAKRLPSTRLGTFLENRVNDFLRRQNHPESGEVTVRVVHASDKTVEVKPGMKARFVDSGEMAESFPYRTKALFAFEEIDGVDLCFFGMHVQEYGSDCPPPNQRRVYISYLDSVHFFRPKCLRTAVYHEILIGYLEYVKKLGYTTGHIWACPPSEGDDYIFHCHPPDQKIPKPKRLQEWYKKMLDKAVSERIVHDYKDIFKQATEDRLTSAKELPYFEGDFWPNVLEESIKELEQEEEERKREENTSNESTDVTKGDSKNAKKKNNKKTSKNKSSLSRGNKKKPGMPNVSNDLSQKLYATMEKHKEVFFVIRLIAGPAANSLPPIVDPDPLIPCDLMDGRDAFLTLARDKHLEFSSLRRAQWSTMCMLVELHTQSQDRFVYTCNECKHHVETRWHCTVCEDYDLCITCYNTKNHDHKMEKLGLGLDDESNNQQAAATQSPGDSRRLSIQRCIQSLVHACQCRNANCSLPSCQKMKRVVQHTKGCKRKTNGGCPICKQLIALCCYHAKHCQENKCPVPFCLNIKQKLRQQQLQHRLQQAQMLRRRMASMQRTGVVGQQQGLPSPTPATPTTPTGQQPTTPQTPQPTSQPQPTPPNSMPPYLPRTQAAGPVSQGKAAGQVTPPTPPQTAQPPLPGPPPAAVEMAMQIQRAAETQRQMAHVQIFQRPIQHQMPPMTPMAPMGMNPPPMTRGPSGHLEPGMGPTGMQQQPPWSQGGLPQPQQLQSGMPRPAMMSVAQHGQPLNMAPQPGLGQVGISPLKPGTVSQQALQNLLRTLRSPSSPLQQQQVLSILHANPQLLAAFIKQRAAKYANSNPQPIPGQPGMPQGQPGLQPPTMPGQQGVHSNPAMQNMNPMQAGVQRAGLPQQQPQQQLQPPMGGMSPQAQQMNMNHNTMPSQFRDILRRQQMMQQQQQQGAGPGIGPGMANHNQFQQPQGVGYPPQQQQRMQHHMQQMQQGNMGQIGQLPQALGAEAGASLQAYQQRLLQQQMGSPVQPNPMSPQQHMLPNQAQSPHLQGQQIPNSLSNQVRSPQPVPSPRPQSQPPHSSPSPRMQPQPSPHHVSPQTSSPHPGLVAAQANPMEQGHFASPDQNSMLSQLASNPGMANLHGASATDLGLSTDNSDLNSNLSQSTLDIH
Target sequence in this assay (Q96SW2 whole entry partner): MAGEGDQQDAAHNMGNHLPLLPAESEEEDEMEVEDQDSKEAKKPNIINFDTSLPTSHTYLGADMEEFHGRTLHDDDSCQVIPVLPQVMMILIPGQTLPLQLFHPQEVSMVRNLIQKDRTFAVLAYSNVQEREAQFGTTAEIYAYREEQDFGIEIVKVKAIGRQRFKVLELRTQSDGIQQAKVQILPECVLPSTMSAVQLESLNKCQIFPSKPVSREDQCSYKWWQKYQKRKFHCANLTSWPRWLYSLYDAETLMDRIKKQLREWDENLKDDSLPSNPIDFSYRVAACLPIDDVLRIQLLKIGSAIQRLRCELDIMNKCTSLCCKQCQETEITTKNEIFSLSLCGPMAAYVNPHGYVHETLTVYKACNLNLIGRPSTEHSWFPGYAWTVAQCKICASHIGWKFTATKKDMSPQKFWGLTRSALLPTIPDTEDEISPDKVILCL

[25] = molecular target: T1, Protein cereblon/Histone acetyltransferase p300; experiment: PROTAC activity at p300/CRBN in human VCaP cells assessed as maximal protein degradation at 1 uM incubated for 4 hrs by Western blot analysis relative to control; type: cell-based
Target sequence in this assay (Q09472 2-2414 limits assumed): as the sequence (Q09472 2-2414 limits assumed) above
Target sequence in this assay (Q96SW2 whole entry partner): as the sequence (Q96SW2 whole entry partner) above

[26] = system: VCaP; experiment: Antitumor activity against human VCaP cells xenografted in CB17 SCID mouse model assessed as tumor growth inhibition at 20 mg/kg, po qd scheduled 5 days in a week measured on day 63; type: functional; conditions: 1512 h, time 63 day, read-out: TGI
[27] = molecular target: Bromodomain-containing protein 4 (Homo sapiens, UniProt O60885); experiment: Binding affinity to BRD4 (unknown origin) by SPR assay

CC(=O)N1CCc2c(c(N3CCCc4cc(-c5cnn(C)c5)c(C(F)F)cc43)nn2C2CCOCC2)C1
Activity [1]: Active | IC50 [2]: 7 µM | Activity [3]: Active | Activity [4]: Active | Activity [5]: Active | inhibition in vivo at 30 mg/kg [6]: 46% | IC50 [7]: 0.216 µM | Activity [8]: Active | Activity [9]: Active | Activity [10]: Active | Activity [11]: Active | Activity [12]: Active | IC50 [13]: > 1 µM

N#Cc1ccc(O[C@H]2CC[C@H](NC(=O)c3ccc(N4CCC(CN5CCN(c6cc7c(cc6F)C(=O)N(C6CCC(=O)NC6=O)C7=O)CC5)CC4)nn3)CC2)cc1Cl (stereo not given in full) [BAVDEGALUTAMIDE]
Activity [14]: inactive | IC50 [2]: 0.124 µM | IC50 [7]: 0.219 µM | Activity [15]: Active | Activity [16]: inactive | Activity [17]: Active | Activity [18]: inactive | Activity [19]: inactive | IC50 [13]: 0.316 µM

CC(=O)N1CCc2c(c(N3CCCc4cc(-c5cnn(C)c5)c(C(F)F)cc43)nn2[C@H]2CC[C@H](CN3CCN(c4cc5c(cc4F)C(=O)N(C4CCC(=O)NC4=O)C5=O)CC3)CC2)C1 (stereo not given in full)
DC50 [20]: 0.0012 µM | Ratio [21]: 4 | DC50 [22]: 0.0012 µM | Emax [23]: 94% | Ratio [24]: 4 | Emax [25]: 94%

CNC(=O)c1ccc(N2C(=S)N(c3ccc(C#N)c(C(F)(F)F)c3)C(=O)C2(C)C)cc1F [ENZALUTAMIDE]
Activity [1]: Active | IC50 [2]: 8 µM | Activity [3]: inactive | Activity [4]: Active | Activity [5]: Active | inhibition in vivo at 20 mg/kg [26]: 2.8% | IC50 [7]: 9.5 µM | Activity [8]: inactive | Activity [9]: Active | Activity [10]: inactive | Activity [11]: Active | Activity [12]: Active | IC50 [13]: > 1 µM

CO[C@H]1CC[C@H](n2c([C@@H]3CCCC(=O)N3c3ccc(F)c(F)c3)nc3cc(-c4c(C)noc4C)ccc32)CC1 [INOBRODIB]
Activity [1]: Active | IC50 [2]: 0.412 µM | Activity [3]: Active | Activity [4]: Active | Activity [5]: Active | inhibition in vivo at 20 mg/kg [26]: 42% | IC50 [7]: 0.0536 µM | Activity [8]: Active | Kd [27]: 0.222 µM | Activity [9]: Active | Activity [10]: Active | Activity [11]: Active | Activity [12]: Active | IC50 [13]: 0.184 µM
